# Measurements published in article PMC7694037, “Quinolizidine-Derived Lucanthone and Amitriptyline Analogues Endowed with Potent Antileishmanial Activity” (Pharmaceuticals, 2020).
# Read-outs that look alike come from different tables or passages of the source.
# What was measured:
# L. donovani = tested on: L. donovani; design: method as in PMID 21358812; conditions: ex vivo splenic explant model system; read-out: IC50 against L. donovani; cited from earlier work
# [1] = tested on: choline uptake into rat brain synaptosomes; design: method as in PMID 6124978; conditions: 1 µM concentration; cited from earlier work
# PMA-differentiated THP-1 = assay: Cytotoxicity against PMA-differentiated THP-1 cells (MTT); type: cell-based, human; conditions: CC50 THP-1 / IC50 L. infantum amastigotes
# Protocol: (§1) The cytotoxic concentration (CC50) against THP-1 differentiated into macrophages (Table 3), used for testing the activity against the amastigote stage, is also reported.
# (§2) THP-1 cells were plated at 5 × 10^5 cells/mL in 96 wells flat bottom microplates and treated with 0.1 µM PMA for 48 h to achieve differentiation into macrophages. Cells were then treated with serial dilutions of test compounds and cell proliferation evaluated using the MTT assay described for promastigotes.
# [2] = as above; type: cell-based, human; conditions: human
# Protocol: as §1, §2
# Bacillus subtilis = tested on: Bacillus subtilis; design: method as in PMID 3653383; conditions: cited from earlier work
# [3] = tested on: Leishmania tropica promastigotes; assay: Antileishmanial activity against L. tropica promastigotes (MTT assay); conditions: for IC50: 72 h, IC50 ± SD; for Ratio IC50 Miltef./IC50 Compd. (L. tropica): ratio between IC50 of miltefosine and that of each compound, L. tropica promastigotes
# Protocol: (§5) Promastigote stage of L. infantum strain MHOM/TN/80/IPT1 (kindly provided by Dr. M. Gramiccia, ISS, Roma) and L. tropica (MHOM/SY/2012/ISS3130) were cultured in RPMI 1640 medium (EuroClone) supplemented with 10% heat-inactivated fetal calf serum (EuroClone, Milan Italy), 20 mM Hepes and 2 mM L-glutamine at 24 °C. […] Compounds were dissolved in DMSO and then diluted with medium to achieve the required concentrations. Drugs were placed in 96 wells round-bottom microplates and seven serial dilutions made. Miltefosine was used as reference anti-Leishmania drug. Parasites were diluted in complete medium to 5 × 10^6 parasites/mL and 100 μL of the suspension was seeded into the plates, incubated at 24 °C for 72 h and then 20 µL of MTT solution (5 mg/mL) was added into each well for 3 h. The plates were then centrifuged, the supernatants were discarded and the resulting pellets were dissolved in 100 µL of lysing buffer consisting of 20% (w/v) of a solution of SDS (Sigma), 40% DMF (Merck, Milan Italy) in H2O. The absorbance was measured spectrophotometrically at a test wavelength of 550 nm and a reference wavelength of 650 nm.
# [4] = i.p., doses up to 200–350 mg/kg, once a day for five consecutive days, mice inoculated with leukemia P388 cells; cited from earlier work
# [5] = tested on: L. infantum promastigotes; assay: Antileishmanial activity against L. infantum promastigotes (MTT assay); conditions: for IC50: Leishmania infantum, 72 h, read-out: IC50 L. infantum; for Ratio IC50 Miltef./IC50 Compd. (L. infantum): ratio between IC50 of miltefosine and that of each compound, L. infantum promastigotes
# Protocol: as §5
# [6] = Cytotoxicity against Vero-76 cells (crystal violet staining); type: cell-based, Cercopithecus Aethiops; conditions: Cercopithecus aethiops (African green monkey)
# Protocol: (§3) The cytotoxicity of lucanthone was also tested for comparison. […] The relevant selectivity index (SI)—a parameter that quantifies the preferential antileishmanial activity of a compound in relation to mammalian cell toxicity (CC50/IC50)—is tabulated in Table 2. […] The replacement of the 4-methyl substituent with an amino group in compound 14, while preserving good antileishmanial activity, led to a further substantial decrease of cytotoxicity, with a resultantly safer profile (SI = 16.2 and 16.9 for the two Leishmania species).
# (§4) Vero-76 cells (ATCC CRL 1587 Cercopithecus Aethiops) were seeded at an initial density of 4 × 10^5 cells/mL in 24-well plates, in culture medium (Dulbecco’s modified eagle’s medium (D-MEM) with L-glutamine, supplemented with fetal bovine serum (FBS), 0.025 g/L kanamycin). Cell cultures were then incubated at 37 °C in a humidified, 5% CO2 atmosphere in the absence or presence of serial dilutions of test compounds. Cell viability was determined after 48–96 h at 37 °C by the Crystal violet staining method. The results are expressed as CC50, which is the concentration of compound necessary to inhibit cell growth by 50%. Each CC50 value is the mean and standard deviation of at least three separate experiments performed in duplicate.
# Vero-76 cells = assay: as above; type: cell-based, Cercopithecus Aethiops; conditions: for S.I. L. tropica: CC50 Vero-76 / IC50 L. tropica promastigotes
# Protocol: as §3, §4
# Staphylococcus aureus = tested on: Staphylococcus aureus; design: method as in PMID 3653383; conditions: cited from earlier work
# [7] = tested on: intramacrophagic amastigotes of L. infantum; assay: Intracellular amastigote susceptibility assay in PMA-differentiated THP-1 macrophages; type: cell-based; conditions: Leishmania infantum, read-out: L. infantum Amastigotes IC50
# Protocol: Finally, for a better idea of their real value as antileishmanial agents, compounds 14 and 17, displaying the most promising activity against promastigote stage and the highest SI values, together with lucanthone and the corresponding quinolizidine analog 1, were tested against the intramacrophagic amastigote stage of L. infantum.
# THP-1 cells (human acute monocytic leukemia) were maintained in RPMI supplemented with 10% FBS (EuroClone), 50 µM 2-mercaptoethanol, 20 mM Hepes and 2 mM glutamine, at 37 °C in 5% CO2. For Leishmania infections, THP-1 cells were plated at 5 × 10^5 cells/mL in 16-chamber Lab-Tek culture slides (Nunc, Milan, Italy) and treated with 0.1 µM phorbol myristate acetate (PMA, Sigma) for 48 h to achieve differentiation into macrophages. Cells were washed and infected with metacyclic L. infantum promastigotes at a macrophage/promastigote ratio of 1/10 for 24 h. Cell monolayers were then washed and incubated in the presence of test compounds for 72 h. Slides were fixed with methanol and stained with Giemsa. The percentages of infected macrophages among treated and non-treated cells were determined by light microscopy.
# [8] = tested on: Mycobacterium tuberculosis; design: method as in PMID 3653383; conditions: cited from earlier work
# [9] = tested on: rat skeletal myoblast cells (L6); conditions: cited from earlier work
# [10] = tested on: rat skeletal myoblast cells (L6); assay: Cytotoxicity on rat skeletal myoblast cells (L6); type: cell-based
# [11] = tested on: intramacrophagic L. tropica amastigotes; design: method as in PMID 6312823; conditions: cited from earlier work
# AChE = tested on: AChE; design: method as in PMID 3707621, PMID 25924599, PMID 21459491; conditions: cited from earlier work
# [12] = design: method as in PMID 4954156, PMID 4633870; conditions: bacteria not specified; cited from earlier work
# BChE = tested on: BChE; design: method as in PMID 3707621, PMID 25924599, PMID 21459491; conditions: cited from earlier work
# [13] = Leishmania tropica, read-out: IC50 L. tropica, promastigotes, MTT, 72 h
SMILES,inhibition of choline uptake into rat brain synaptosomes [1],SI (THP-1) (PMA-differentiated THP-1),"IC50 [3, 13] [µM]",Ratio IC50 Miltef./IC50 Compd. (L. tropica) [3],mortality [4],IC50 [5] [µM],Ratio IC50 Miltef./IC50 Compd. (L. infantum) [5],S.I. L. tropica (Vero-76 cells),further results
O=c1c2ccccc2sc2c(CO)ccc(CCN3CCCCC3)c12 [1-(piperidinoethyl)-4-hydroxymethylthioxanthen-9-one],–,–,–,–,–,–,–,–,IC50 (L. donovani): 9.1 µM
CN(C)CCC=C1c2ccccc2CCc2ccccc21 [Amitriptyline],completely ineffective,–,–,–,–,–,–,–,–
Cc1ccc(NC[C@@H]2CCCN3CCCC[C@H]23)c2c(=O)c3ccccc3sc12 [Compound 1],–,8.0,3.36 ± 1.53,12.9,no mortality,3.87 ± 1.53,8.1,7.0,"CC50 [2]: 28 ± 8 µM; MIC Bacillus subtilis (Bacillus subtilis): 2.5 µg/mL; MIC Bacillus subtilis (Bacillus subtilis; converted from µg/mL): 6.63 µM; CC50 [6]: 23.5 ± 1.8 µM; MIC Staphylococcus aureus (Staphylococcus aureus): 2.5 µg/mL; MIC Staphylococcus aureus (Staphylococcus aureus; converted from µg/mL): 6.63 µM; IC50 ([7]; intramacrophagic amastigotes in THP-1 macrophages, 72 h, mean ± SD): 3.49 ± 0.18 µM; MIC Mycobacterium tuberculosis [8]: 1.25 µg/mL; MIC Mycobacterium tuberculosis ([8]; converted from µg/mL): 3.32 µM"
COc1ccc2sc3c(C)ccc(NCCC4CCCN5CCCCC45)c3c(=O)c2c1 (centres unmarked) [Compound 6],–,–,28.4 ± 14.3,1.5,no mortality,> 46,<0.7,–,CC50 [9]: 137 µM; selectivity index (SI) L6 vs L. infantum ([10]; CC50 L6 / IC50 L. infantum): ≤ 3; selectivity index (SI) L6 vs L. tropica ([10]; CC50 L6 / IC50 L. tropica): 4.8
"C(=C1c2ccccc2CCc2ccccc21)[C@@H]1CCCN2CCCC[C@H]12 [Compound 18, lupinylidene dibenzocycloheptadiene]",inhibit the choline uptake,–,24.2 ± 3.58,1.8,–,25.2 ± 1.92,1.24,–,–
CCN(CC)CCNc1ccc(C)c2sc3ccccc3c(=O)c12 [Lucanthone],–,4.4,2.5,16.8,–,3.5 ± 1.17,8.9,4.8,"CC50 ([2]; PMA-differentiated THP-1, mean ± SD, read-out: THP-1 CC50): 15.2 ± 0.27 µM; IC50 ([3]; read-out: IC50 L. tropica, promastigotes, MTT): 2.57 ± 1.03 µM; IC50 against intramacrophagic L. tropica amastigotes [11]: 0.93 µg/mL; IC50 ([11]; converted value in brackets, read-out: IC50 against intramacrophagic L. tropica amastigotes): 2.47 µM; IC50 AChE inhibition (AChE): low micromolar and sub-micromolar range; MIC (antibacterial activity) [12]: 30 to 60 µM; CC50 ([6]; Vero-76 monolayers, CC50 ± SD, read-out: CC50 Vero-76): 12.4 ± 2.1 µM; S.I. L. infantum (Vero-76 cells; CC50 Vero-76 / IC50 L. infantum promastigotes): 3.5; IC50 BChE inhibition (BChE): low micromolar and sub-micromolar range; IC50 ([7]; THP-1, 72 h): 3.43 ± 0.93 µM"
